Experimental findings from US20120252721A1 (priority 2011, published 2012) are described below.

Like-named read-outs stand apart in the source and are kept apart here.

Data set [1] has as its system ZS11-luc Y93H (HCV genotype 1b replicon). The experiment in a line: Luciferase replicon transient transfection assay, ZS11-luc Y93H. Format: cell-based, hepatitis C virus. Conditions: for EC50: Hepatitis C virus, 96 h, Huh7.5 cells, 4 days. On the procedure: (§1) The luciferase replicon transient transfection assay measures the ability of a test compound to inhibit the replication of a transiently-transfected HCV luciferase-bearing wild-type or mutant replicon in cured human hepatoma cells (Huh7.5). The inhibition of HCV replication was measured by quantification of luciferase protein expression. This assay has been validated using a panel of genotype 1a and 1b replicons bearing mutations known to be associated with resistance to BMS-790052. Briefly, subconfluent Huh7.5 cells were electroporated with 10 μg of wild-type or mutant luciferase-bearing HCV replicon RNA. The cells were then seeded in 96-well opaque white plates at 3×10^4 cells/well in 150 μL/well and incubated for 4 hrs at 37° C./5% CO2. Ten 1:5 serial dilutions of each test compound were made in media (DMEM containing glucose, L-glutamine and sodium pyruvate, 10% fetal bovine serum, 100 IU/mL penicillin, 100 μg/mL streptomycin, 2 mM GlutaMAX, and 1×MEM non-essential amino acids (Mediatech, Inc. and Invitrogen Corp.)) at concentrations that were 4× higher than the final concentrations to be tested and 50 μL/well was added to the transfected cells. Untreated, mock-transfected cells served as a negative control of luciferase expression. The plates were incubated at 37° C./5% CO2 for 4 days whereupon the media was removed and 50 μL of ONE-glo luciferase substrate (Promega) was added to each well. The plates were agitated on a rotating platform at room temperature for 3 min and read in a Victor^3V microplate reader (Perkin-Elmer) using a 700 nm cut-off filter with a 1 sec read time. EC50 values were calculated from dose response curves from the resulting best-fit equations determined by Microsoft Excel and XLfit 4.1 software.
(In general: In antiviral work, replicon cells carry a viral genome segment that copies itself.)

Data set [2] has as its system 1a-luc Q30H (HCV genotype 1a replicon). The experiment in a line: Luciferase replicon transient transfection assay, 1a-luc Q30H. Conditions: for EC50: Hepatitis C virus, 96 h, Huh7.5 cells, 4 days. The class given is cell-based, hepatitis C virus. On the procedure:
as §1

Data set [3] concerns ZS11-luc L31M (HCV genotype 1b replicon). Nature of the data set: Luciferase replicon transient transfection assay, ZS11-luc L31M. The class given is cell-based, hepatitis C virus. The settings on record: for EC50: Hepatitis C virus, 96 h, Huh7.5 cells, 4 days. As for the experimental part: as §1
Data set [4] has as its system HCV genotype 1b Con1 strain subgenomic luciferase replicon (Zluc). The experiment in a line: Luciferase replicon assay, genotype 1b. The settings on record: Hepatitis C virus. Format: cell-based. A digest of the protocol: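 Replicon-bearing Huh-7 cells (1×10^4 H1a-luc or 7.5×10^3 Zluc per well) dosed 3 h after plating with ten 5-fold compound dilutions, 72 h at 37 °C/5% CO2. Luciferase measured by ONE-glo luminescence; EC50 from dose-response fits, replicon-free Huh-7 as negative control.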

For data set [5], the system named is 1a-luc Y93N (HCV genotype 1a replicon). The experiment in a line: Luciferase replicon transient transfection assay, 1a-luc Y93N. Format: cell-based, hepatitis C virus. Conditions: for EC50: Hepatitis C virus, 96 h, Huh7.5 cells, 4 days. On the procedure:
as §1

The test system of data set [6] is 1a-luc Y93H (HCV genotype 1a replicon). Nature of the data set: Luciferase replicon transient transfection assay, 1a-luc Y93H. The class given is cell-based, hepatitis C virus. Conditions: for EC50: Hepatitis C virus, 96 h, Huh7.5 cells, 4 days. On the procedure: as §1
For data set [7], the system named is 1a-luc WT (HCV genotype 1a replicon). The experiment in a line: Luciferase replicon transient transfection assay, 1a-luc WT. Conditions: Hepatitis C virus, 96 h, Huh7.5 cells, 4 days. Format: cell-based. On the procedure: as §1
Data set [8] has as its system ZS11-luc Y93C (HCV genotype 1b replicon). Nature of the data set: Luciferase replicon transient transfection assay, ZS11-luc Y93C. Format: cell-based, hepatitis C virus. Conditions: for EC50: Hepatitis C virus, 96 h, Huh7.5 cells, 4 days. On the procedure: as §1
Data set [9] concerns 1a-luc L31V (HCV genotype 1a replicon). Nature of the data set: Luciferase replicon transient transfection assay, 1a-luc L31V. Conditions: for EC50: Hepatitis C virus, 96 h, Huh7.5 cells, 4 days. Format: cell-based, hepatitis C virus. On the procedure:
as §1

Data set [10] relates to HCV genotype 1a H77 strain subgenomic luciferase replicon (H1a-luc). The experiment in a line: Luciferase replicon assay, genotype 1a. The class given is cell-based. Conditions: Hepatitis C virus, read-out: EC50 1a. In short, it runs like this:
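Huh-7 cells carrying H1a-luc subgenomic replicon (luciferase-neomycin phosphotransferase fusion), seeded at 1×10^4 cells/well, dosed 3 h later with ten 5-fold compound dilutions for 72 h at 37 °C. Replication read as luciferase luminescence; replicon-free Huh-7 cells as negative control. EC50 from dose-response curve fits.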

Data set [11] relates to 1a-luc Q30E (HCV genotype 1a replicon). The experiment in a line: Luciferase replicon transient transfection assay, 1a-luc Q30E. Format: cell-based, hepatitis C virus. Conditions: for EC50: Hepatitis C virus, 96 h, Huh7.5 cells, 4 days. As for the experimental part:
as §1

The next data set has as its system H1a-luc or Zluc cells. Nature of the data set: in vitro. Format: cell-based, human. The settings on record: Table 1B, cellular viability. In short, it runs like this:
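Cytotoxicity counter-screen in which the H1a-luc or Zluc cells were compound-treated and viability was read with the CellTiter 96 AQueous One (MTS) reagent by absorbance at 490 nm. CC50 values came from curve fitting.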

Data set [12] relates to 1a-luc Y93C (HCV genotype 1a replicon). The experiment in a line: Luciferase replicon transient transfection assay, 1a-luc Y93C. Format: cell-based, hepatitis C virus. Conditions: for EC50: Hepatitis C virus, 96 h, Huh7.5 cells, 4 days. On the procedure: as §1
Data set [13] relates to ZS11-luc L31F (HCV genotype 1b replicon). Nature of the data set: Luciferase replicon transient transfection assay, ZS11-luc L31F. The class given is cell-based, hepatitis C virus. Conditions: for EC50: Hepatitis C virus, 96 h, Huh7.5 cells, 4 days. As for the experimental part:
as §1

The subject of data set [14] is ZS11-luc L31V (HCV genotype 1b replicon). Nature of the data set: Luciferase replicon transient transfection assay, ZS11-luc L31V. Format: cell-based, hepatitis C virus. The settings on record: for EC50: Hepatitis C virus, 96 h, Huh7.5 cells, 4 days. As for the experimental part: as §1

In the case of `COC(=O)N[C@H](C(=O)N1CCC[C@H]1c1ncc(-c2ccc(-c3csc4c(-c5cnc([C@@H]6CCCN6C(=O)[C@H](NC(=O)OC(C)(C)C)c6ccccc6)[nH]5)csc34)cc2)[nH]1)C(C)C` [Compound A111, [(S)-1-((S)-2-{4-[4-(6-{(S)-2-[1-((R)-2-tert-butoxycarbonylamino-2-phenyl-acetyl)-pyrrolidin-2-yl]-3H-imidazol-4-yl}-thieno[3,2-b]thiophen-3-yl)-phenyl]-1H-imidazol-2-yl}-pyrrolidine-1-carbonyl)-2-methyl-propyl]-carbamic acid methyl ester], the Ratio is 48 in data set [1]; 7 in data set [3]; >11,202 in data set [5]; more than 4859 in [6]; 4 in data set [8]; 768 in data set [9]. The Ratio came to 957 in data set [11], 146 in [12], 8 in [13] and 51 in [14]. For the same molecule, the EC50 in data set [1] is 0.08 nM; in data set [2], 2 nM; in data set [3], 0.01 nM; in [4], less than 0.1 nM; in [5], more than 454 nM; in data set [6], more than 198 nM. For the same molecule, the EC50 in data set [7] is 0.04 nM; in data set [8] it was 0.006 nM; in [9], 36 nM; in data set [10], 0.1 to 1 nM; in data set [11] it was 47 nM; in [12], 6 nM. In addition, the figures for the EC50 in data set [13] and in data set [14] were 0.01 nM and 0.09 nM, respectively. Further, the CC50 with H1a-luc or Zluc cells was more than 75000 nM.

Consider `COC(=O)N[C@H](C(=O)N1CCC[C@H]1c1nc2cc(-c3csc4c(-c5ccc(-c6cnc([C@@H]7CCCN7C(=O)[C@H](NC(=O)OC)c7ccccc7)[nH]6)cc5)csc34)ccc2[nH]1)C(C)C` [Compound A169, [(S)-1-((S)-2-{6-[6-(4-{(S)-2-[1-((R)-2-methoxycarbonylamino-2-phenyl-acetyl)-pyrrolidin-2-yl]-3H-imidazol-4-yl}-phenyl)-thieno[3,2-b]thiophen-3-yl]-1H-benzoimidazol-2-yl}-pyrrolidine-1-carbonyl)-2-methyl-propyl]-carbamic acid methyl ester], for which the Ratio is on record as 82 in data set [1]; 24 in data set [2]; 4 in data set [3]; 14,363 in data set [5]; 4428 in data set [6]; 3 in data set [8]. The Ratio was determined as 425 in data set [9]; 422 in [11]; 40 in [12]; 4 in [13]; 14 in data set [14]. Besides, the EC50 in data set [1] is 0.2 nM; in data set [2], 0.05 nM; in data set [3], 0.009 nM; in [4] it was less than 0.1 nM; in [5], 30 nM; in data set [6] it was 9 nM. For the same molecule, the EC50 was 0.002 nM in data set [7]; 0.006 nM in data set [8]; 0.9 nM in data set [9]; less than 0.1 nM in data set [10]; 0.9 nM in data set [11]; 0.08 nM in data set [12]. Besides, the values for the EC50 in data set [13] and in data set [14] were 0.01 nM and 0.03 nM, respectively. The CC50 with H1a-luc or Zluc cells was more than 75000 nM.

Turning to `COC(=O)N[C@H](C(=O)N1CCC[C@H]1c1ncc(-c2ccc(-c3csc4c(-c5ccc6[nH]c([C@@H]7CCCN7C(=O)[C@H](NC(=O)OC)c7ccccc7)nc6c5)csc34)cc2)[nH]1)C(C)C` [Compound A172, [(S)-1-((S)-2-{5-[4-(6-{(S)-2-[1-((R)-2-Methoxycarbonylamino-2-phenyl-acetyl)-pyrrolidin-2-yl]-3H-benzoimidazol-5-yl}-thieno[3,2-b]thiophen-3-yl)-phenyl]-1H-imidazol-2-yl}-pyrrolidine-1-carbonyl)-2-methyl-propyl]-carbamic acid methyl ester], the Ratio in data set [1] is given as 56; in data set [2] it was 21; in data set [3] it was 3; in data set [5], 22,328; in [6] it was 5427; in data set [8] it was 2. For the same molecule, the Ratio in data set [9] came out at 695; in data set [11], 423; in [12] it was 96; in data set [13], 4; in data set [14], 9. The EC50 in data set [1] was 0.3 nM; in data set [2], 0.08 nM; in [3], 0.01 nM; in data set [4], less than 0.1 nM; in [5] it was 81 nM; in data set [6], 21 nM. Also, the EC50 was 0.004 nM in data set [7]; 0.01 nM in [8]; 3 nM in data set [9]; less than 0.1 nM in data set [10]; 2 nM in [11]; 0.4 nM in [12]. The EC50 came out at 0.02 nM in data set [13] and 0.04 nM in data set [14]. Besides, in the data set with H1a-luc or Zluc cells, the CC50 was more than 75000 nM.

For `COC(=O)N[C@H](C(=O)N1CCC[C@H]1c1ncc(-c2ccc(-c3csc4c(-c5cnc([C@@H]6CCCN6C(=O)[C@@H](NC(=O)OC)C(C)C)[nH]5)csc34)cc2)[nH]1)C(C)C` [Compound A15, [(S)-1-((S)-2-{4-[4-(6-{2-[(S)-1-((S)-2-methoxycarbonylamino-3-methyl-butyryl)-pyrrolidin-2-yl]-3H-imidazol-4-yl}-thieno[3,2-b]thiophen-3-yl)-phenyl]-1H-imidazol-2-yl}-pyrrolidine-1-carbonyl)-2-methyl-propyl]-carbamic acid methyl ester], the half-maximal effective concentration (EC50) in [4] and in data set [10] (genotype 1a) was less than 0.1 nM throughout.

Broadly, the EC50 is the concentration that produces a half-maximal response. In general, CC50 refers to the concentration at which the toxic effect on the cells reaches its halfway point.
